Experimental data from the METLIN SMRT retention time set (Domingo-Almenara et al. 2019).

Assay: gradient 5% acetonitrile 3 min, to 50% in 2 min, to 85% in 15 min, held 3 min, 100 µL/min
Conditions: column: Zorbax Extend-C18 2.1 x 50 mm; eluents: water / acetonitrile, 0.1% formic acid
In short: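 A Zorbax Extend-C18 column (2.1 × 50 mm, 1.8 μm) run at 100 μL/min with water and acetonitrile, both containing 0.1% formic acid, separated mixtures of ~100 pure standards. The HPLC was coupled to a quadrupole time-of-flight mass spectrometer operated in positive and negative ionization mode, with dead and dwell volumes of 40 μL and 900 μL. Each retention time was taken from a computationally picked adduct peak that was then manually inspected.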

| SMILES | RP-LC retention time |
| --- | --- |
| O=S(=O)(Nc1ccc(Cn2cncn2)cc1)c1ccc(F)c(F)c1 | 721 s |
| NC(=O)c1cc(N2CCOCC2)nc2c(Cl)cccc12 | 720 s |
| CCn1ccc2sc(C)c(C(=O)NCc3cc(F)ccc3F)c2c1=O | 835 s |
| CC(C)CN1Cc2ccccc2-n2ccnc2C12CCN(C(=O)c1ccccn1)CC2 | 631 s |
| CC(C)(C)c1nc(N2CCCCC2)c2ccccc2n1 | 723 s |
| O=C1COc2ccc(S(=O)(=O)N3CCCC3C(=O)NCc3ccccc3Cl)cc2N1 (stereo not given) | 784 s |
| CCNc1cc(N2CCC(CCC(=O)O)CC2)ncn1 | 576 s |
| COc1ccc(NC(=O)Cn2cccc2-c2nnc(C3CCC3)o2)cc1 | 850 s |
| CCc1ccc(C2=C(C)C(N3CCCN(C(=O)NC(C)CC)CC3)=NS2(=O)=O)cc1 (stereo not given) | 866 s |
| O=C(NC1CCCCCC1)c1csc(-c2ccc(N3CCOCC3)nc2)n1 | 991 s |
| CCC(C)NC(=O)CCC(=O)N1CCc2c(c(C(=O)N3CCCC3)nn2C)C1 (stereo not given) | 617 s |
| CCC1CCCCN1C(=O)c1cnc2nc(C)ccc2c1Nc1ccc(C(=O)OC)cc1 (stereo not given) | 681 s |
| CC(=O)c1ccc(NC(=O)Cn2cnc3nc4c(cc3c2=O)CC(C)CC4)cc1 (stereo not given) | 738 s |
| Cc1ccc(C(=O)N2CCCCC2c2nncn2CC2CC2)cn1 (stereo not given) | 575 s |
| Cc1ccc(NC(=O)CN2C(=O)NC3(CCCCC3)C2=O)cc1 | 760 s |
| NC(=O)C1CCN(C(=O)c2cn(-c3ccc(Cl)cc3)nn2)CC1 | 660 s |
| Cc1cc(OCC(=O)Nc2ccc(Br)cc2F)nc(N2CCCCC2)n1 | 666 s |
| O=C(CCC1CCN(c2cc(NC3CC3)ncn2)CC1)NCc1ccc(F)cc1 | 649 s |
| O=C(O)CCCC(=O)Nc1nc(-c2ccccc2)c(-c2ccccc2)s1 | 893 s |
| Cc1ccc(C(=O)CC2(O)C(=O)Nc3ccc(Cl)cc32)cc1C (stereo not given) | 772 s |
| Cc1ccc(C)c(CN2CCC(CNC(=O)C3CCN(c4cc(=O)n(C)c(=O)n4C)CC3)CC2)c1 | 618 s |
| COC(=O)c1cccc(NC(=O)N2CCN(Cc3nc4ccc(Cl)cc4o3)CC2)c1 | 756 s |
| Cc1cc(Cl)ccc1NC(=O)C1CCN(S(=O)(=O)c2c(C)nn(-c3ccccc3)c2C)CC1 | 1020 s |

| SMILES | RP-LC retention time |
| --- | --- |
| O=C(C1=CN(c2ccc(Br)cc2)c2ccccc2S1(=O)=O)N1CCCC1 | 838 s |
| CCn1ccc2sc(C)c(C(=O)N3CCCCC3)c2c1=O | 684 s |
| COc1ccc(NC(=O)N2CC=C(c3cn(C)c4ncccc34)CC2)cc1OC | 714 s |
| CC(=O)N(Cc1nn(C)c2c1CN(CC1=Cc3ccccc3OC1)CC2)c1ccccc1 | 654 s |
| CSc1ccc(-c2nc3ccccn3c2Nc2ccc(C)cc2)cc1 | 781 s |
| Cc1cc(C2CCCN2C(=O)Cc2c(F)cccc2Cl)on1 (stereo not given) | 848 s |
| COCCCNC(=O)c1nc2cccnc2n(CC(C)C)c1=O | 728 s |
| Cn1cccc1C(=O)N1C[C@H]2C[C@H](C1)[C@H]1CCCC(=O)N1C2 | 639 s |
| Cc1oc(-c2[nH]ncc2C(=O)N2CCCCC2)cc1S(=O)(=O)N1CCC(C)CC1 | 809 s |
| Cc1ccccc1NS(=O)(=O)c1cc2c(=O)n(C)ncn2c1 | 801 s |
| O=C(Nc1ccc2cn[nH]c2c1)C1(c2ccccc2)CCOCC1 | 676 s |
| CCCNC(=O)c1cc(C)nc2c(Cl)cccc12 | 753 s |
| Cc1cc(C(=O)NC2CC2)c2cccc(Cl)c2n1 | 716 s |
| CCn1cc(CN2CCC(C(=O)NCc3ccc(C)o3)CC2)c2ccccc21 | 690 s |
| COc1ccc(CNC(=O)C2(C)Cn3cnc(C(=O)N4CCc5ccccc54)c3C(=O)N2C2CC2)cc1 (stereo not given) | 741 s |
| O=C(CN1C(=O)C2CCCCN2c2ccc(C(=O)N3CCCC3)cc21)NCCC1=CCCCC1 (stereo not given) | 914 s |
| Cc1nc(NC2=NCN(CCc3cccs3)CN2)nc2ccccc12 | 731 s |
| N#Cc1ccc(C(=O)NCCn2c(C(F)(F)F)nc3cccnc32)cc1 | 720 s |
| CC(=O)Nc1nc2ccc(CC(=O)Nc3cccc(Cl)c3)cc2s1 | 790 s |
| CNCc1cc(-c2ccccc2F)n(S(=O)(=O)c2cccnc2)c1 | 682 s |
| CC(C)(C)c1noc(-c2ccnc(-n3cnc(C(=O)NC4CC4)c3)c2)n1 | 877 s |
| CC(=O)N1CCN(S(=O)(=O)c2ccc(C(=O)O)cc2)CC1 | 591 s |
| O=C(Nc1ccccc1)N1CCC(CCOc2cccnc2)CC1 | 638 s |

| SMILES | RP-LC retention time |
| --- | --- |
| O=C(NCCc1c[nH]c2ccc(Cl)cc12)C1CCCN(c2nc3cccnc3s2)C1 (stereo not given) | 858 s |
| COc1ccc(-c2cc3n(n2)CCCN(C(=O)Cc2ccsc2)C3)cc1 | 822 s |
| COc1ccccc1CNC(=O)c1nnc(-c2ccc(S(=O)(=O)N3CCCC3)cc2)o1 | 906 s |
| Cc1ccc(CNC(=O)C2(C)CCN(S(=O)(=O)c3ccc(C4CCCCC4)cc3)CC2)cc1 | 1270 s |
| COc1ccc(S(=O)(=O)N2CCCC(Cn3c(C)nc4cccnc43)C2)cc1 (stereo not given) | 688 s |
| CCS(=O)(=O)c1ccc(-c2ccc(NC(=O)c3ccc(Br)o3)cc2)nn1 | 765 s |
| Cc1cccc(C2(O)C(=O)N(CC(=O)N(C)c3ccccc3)c3ccccc32)c1 (stereo not given) | 614 s |
| CCCNC(=O)C1CCN(c2ccc(SCC(=O)NCc3ccc(C(F)(F)F)cc3)nn2)CC1 | 675 s |
| Cc1nc(-c2cccc(NC(=O)c3ncccn3)c2)cs1 | 665 s |
| CCCOc1cc(N2CCN(C(=O)CC(C)C)CC2)nc(C)n1 | 597 s |
| O=c1n(Cc2cc(F)cc(F)c2)nc2c(-c3nc(-c4cccc(F)c4)no3)cccn12 | 1050 s |
| CCOc1ccc(NC(=O)C2CCN(S(=O)(=O)c3ccc4c(c3)sc(=O)n4C)CC2)cc1 | 798 s |
| Cc1ccc(Cn2c(=O)c(N3CCN(C(=O)NC(C)C)CC3)nc3ccccc32)cc1 | 981 s |
| O=C(NCCCN1CCOCC1)C1CCc2sc(C(=O)N3CCCCCC3)cc2C1 (stereo not given) | 560 s |
| Cc1cc(C)cc(NC(=O)N2CC(c3nc(C(C)C)nn3C)C2)c1 | 718 s |
| C#CCOCC(O)CN1CCN(c2cc(Cl)ccc2C)CC1 (stereo not given) | 577 s |
| COCCN1CCC(CNS(=O)(=O)c2ccc(OCC(C)C)cc2)CC1 | 587 s |
| CCOc1ccccc1CNS(=O)(=O)c1ccc2c(c1)CCCC(=O)N2 | 761 s |
| COC[C@@H]1CN(S(=O)(=O)c2ccccc2)C[C@H]1c1ccncc1 | 624 s |
| Cc1ccc(-c2nnc(CC(=O)NCCc3ccc(Cl)cc3)o2)cc1 | 906 s |
| COc1ccccc1NC(=O)N1CCN(c2cc(C)nc(N3CCCCC3)n2)CC1 | 695 s |
| CCC(=O)Nc1cc2c(cc1S(=O)(=O)c1ccccc1)n(C)c(=O)n2C | 710 s |
| COc1ccc(NC(=O)Nc2cc(F)c3nc(N4CCOCC4)ccc3c2)cc1OC | 938 s |

| SMILES | RP-LC retention time |
| --- | --- |
| CCCN1CCn2cc(S(=O)(=O)Nc3ccc(OC)c(Cl)c3)cc2C1=O | 770 s |
| COc1ccccc1-c1noc(C2CCCN2C(=O)Nc2ccc(Br)cc2)n1 (stereo not given) | 964 s |
| COc1cccc(CNC(=O)C2(C)CCCN(S(=O)(=O)c3ccccc3C)C2)c1 (stereo not given) | 957 s |
| O=C(Cc1cccs1)Nc1nnc(-c2ccccc2Cl)s1 | 845 s |
| COc1ccc(CNC(=O)N2CC=C(c3cn(C(C)C)c4ncccc34)CC2)cc1 | 678 s |
| Cc1ccc(CNC(=O)C2(c3ccc(NC(=O)C(C)C)cc3)CCC2)cc1C | 936 s |
| Cc1cc2c(=O)n(CC(=O)Nc3cccc(Cl)c3)ccc2s1 | 832 s |
| Cc1ccc(-c2noc(Cn3c(=O)n(C(C)C)c(=O)c4ccccc43)n2)cc1 | 1150 s |
| CCN1CCc2nc(-c3ccc(F)cc3)n(CC(=O)N3CCc4ccccc4C3)c(=O)c2C1 | 635 s |
| O=C(c1ccco1)N1CCC(n2c(-c3ccsc3)nc3cccnc32)C1 (stereo not given) | 644 s |
| COc1ccc(C(=O)NC2CCN(c3cc(-c4cccs4)[nH]n3)C2)cn1 (stereo not given) | 676 s |
| CN(CC1CCCO1)S(=O)(=O)c1ccc(C(=O)N2CCc3ccccc3C2)cc1 (stereo not given) | 808 s |
| COc1ccc(-c2cc3c(=O)n(Cc4nc(-c5ccc(OC)cc5)oc4C)ccn3n2)cc1 | 1070 s |
| COc1cccc(-c2nc(-c3ccc4ncn(C(C)C)c4c3)no2)c1OC | 766 s |
| Cc1sc(NC(=O)c2ccccc2C(=O)O)nc1-c1ccccc1 | 855 s |
| COc1ccc(CN2N=C(C(=O)N3CCCC3)S(=O)(=O)c3ccccc32)cc1F | 725 s |
| Cn1nccc1-c1cccc(-c2noc(-c3ccc(Br)o3)n2)c1 | 1090 s |
| O=S(=O)(c1cccc2cccnc12)N1CC(c2noc(C3CCCN3CC3CC3)n2)C1 (stereo not given) | 634 s |
| CCOc1ccc(CNC(=O)CN2CC=C(c3cnn(-c4ccccc4)c3)CC2)cc1OCC | 746 s |
| CCc1nc2c(=O)n(CC(=O)N3CCN(c4ccccn4)CC3)nc(C)c2s1 | 585 s |
| O=C1COc2cc(S(=O)(=O)N3CCCC3C(=O)NC3CCCCCCC3)c(Cl)cc2N1 (stereo not given) | 864 s |
